The test deals with Endothelial PAS domain-containing protein 1 (Homo sapiens, UniProt Q99814). The test can be described thus: VEGF ELISA Assay. On the procedure: Four hours later, compounds were dispensed into wells by Tecan D300e digital dispenser with starting concentration of 10 uM and log of dilution down to 1 nM as final concentration. Each concentration of treatment was performed in duplicate. About 20 hours later, medium was removed and fresh medium was added, followed by compounds treatment as described above. After 24 hours, cell culture medium was collected to determine VEGF concentration using an ELISA kit (R&D systems, cat #DVE00) following the manufacturer's instruction.
Endothelial PAS domain-containing protein 1, sequence (Q99814 whole entry, the tested form may be a part): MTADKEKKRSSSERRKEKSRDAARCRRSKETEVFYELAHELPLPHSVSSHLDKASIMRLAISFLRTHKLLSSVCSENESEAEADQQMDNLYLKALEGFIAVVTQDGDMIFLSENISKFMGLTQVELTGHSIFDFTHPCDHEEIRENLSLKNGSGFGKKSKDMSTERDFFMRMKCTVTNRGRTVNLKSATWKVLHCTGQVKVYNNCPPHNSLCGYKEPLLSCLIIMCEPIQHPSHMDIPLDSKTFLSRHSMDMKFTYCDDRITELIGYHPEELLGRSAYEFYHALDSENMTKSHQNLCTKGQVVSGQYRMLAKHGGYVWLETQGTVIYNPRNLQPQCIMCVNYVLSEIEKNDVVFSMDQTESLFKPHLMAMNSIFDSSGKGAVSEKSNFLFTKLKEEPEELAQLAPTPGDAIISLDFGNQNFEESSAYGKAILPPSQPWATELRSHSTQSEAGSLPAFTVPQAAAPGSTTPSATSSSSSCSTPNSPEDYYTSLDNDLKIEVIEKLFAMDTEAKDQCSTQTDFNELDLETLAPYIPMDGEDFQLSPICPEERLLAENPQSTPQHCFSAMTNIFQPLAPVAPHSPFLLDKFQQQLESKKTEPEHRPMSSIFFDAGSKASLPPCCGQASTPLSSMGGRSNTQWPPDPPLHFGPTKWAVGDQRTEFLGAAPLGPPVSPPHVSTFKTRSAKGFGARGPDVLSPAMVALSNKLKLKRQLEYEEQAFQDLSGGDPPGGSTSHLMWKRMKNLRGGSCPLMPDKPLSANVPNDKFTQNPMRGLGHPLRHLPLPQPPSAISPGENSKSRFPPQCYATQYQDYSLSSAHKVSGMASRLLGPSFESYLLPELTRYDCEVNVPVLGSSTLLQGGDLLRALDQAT

For orientation: EC50 means the midpoint of the concentration-response curve. The low end stands for an effect from little substance, the high end for a need for much substance.

`OC1c2c(ccc(Oc3cc(F)cc(F)c3)c2C(F)F)C(F)(F)C1(F)F` (stereo unspecified) [US12077506, Compound I-4]: the EC50 stood at 4 nM.

The values above are taken from BindingDB's records for patent US12077506 (Nikang Therapeutics, 2024).
